Source: US12421253B2 (Mirati Therapeutics, Inc., priority 2020, dated 2025)

Key:
KRas^G12D = biological target: T1, KRas^G12D (Homo sapiens, UniProt P01116, G12D); assay: KRas binding assay (TR-FRET displacement of Cy5 labelled tracer)
T1 construct: […]; biotin (biotinylated); purchased Accelegan Inc

KRas^G12R = biological target: T2, KRas^G12R (Homo sapiens, UniProt P01116, G12R); assay: as above
T2 construct: […]; biotin (biotinylated); purchased Accelegan Inc

KRas^G12V = biological target: T3, KRas^G12V (Homo sapiens, UniProt P01116, G12V); assay: as above
T3 construct: […]; biotin (biotinylated); purchased Accelegan Inc
T3 sequence (P01116 1-169 isoform P01116-2 G12V): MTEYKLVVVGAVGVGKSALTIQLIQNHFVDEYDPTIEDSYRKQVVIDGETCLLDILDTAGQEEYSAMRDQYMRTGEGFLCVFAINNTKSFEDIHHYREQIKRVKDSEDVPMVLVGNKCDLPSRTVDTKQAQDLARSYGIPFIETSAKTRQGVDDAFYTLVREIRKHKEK

A549 cells, pERK = assay: Inhibition of KRas phosphorylation of ERK (Cisbio HTRF Advanced pERK assay); assay type: cell-based; conditions: Homo sapiens, 3 hrs, read-out: Inhibition (HTRF IC50 nM) of KRas-mediated Phosphorylation of ERK, A549
Method in brief: (§1)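 Compound effect on ERK phosphorylation is measured after 3 h exposure of cells, seeded the previous day in RPMI with 10% FBS, to ten 3-fold dilutions starting at 10 uM. Lysates are probed by HTRF for pERK, with trametinib at 0.2 uM defining the minimum signal.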

ASPC1 cells, pERK = assay: as above; assay type: cell-based; conditions: Homo sapiens, ASPC1, 3 h, AsPC-1 cells, read-out: Inhibition (HTRF IC50 nM) of KRas-mediated Phosphorylation of ERK, AsPC-1
Method in brief: as §1

H460 cells, pERK = assay: as above; assay type: cell-based; conditions: Homo sapiens, NCI-H460, 3 hrs, read-out: Inhibition (HTRF IC50 nM) of KRas-mediated Phosphorylation of ERK, H460
Method in brief: as §1

H727 cells, pERK = assay: as above; assay type: cell-based; conditions: Homo sapiens, NCI-H727, 3 h, read-out: Inhibition (HTRF IC50 nM) of KRas-mediated Phosphorylation of ERK, H727
Method in brief: as §1

HCT116 cells, pERK = assay: as above; assay type: cell-based; conditions: Homo sapiens, HCT-116, 3 hrs, read-out: Inhibition (HTRF IC50 nM) of KRas-mediated Phosphorylation of ERK, HCT116
Method in brief: as §1

MKN1 cells, pERK = assay: as above; assay type: cell-based; conditions: Homo sapiens, MKN-1, 3 h, read-out: Inhibition (HTRF IC50 nM) of KRas-mediated Phosphorylation of ERK, MKN1
Method in brief: as §1

PSN1 cells, pERK = assay: as above; assay type: cell-based; conditions: Homo sapiens, PSN1, 3 h, read-out: Inhibition (HTRF IC50 nM) of KRas-mediated Phosphorylation of ERK, PSN1
Method in brief: as §1

[1] = tested on: AsPC-1 (G12D) cells, phospho-ERK; assay: Inhibition of KRas-mediated phosphorylation of ERK (phospho-ERK/GAPDH antibody detection, LI-COR); assay type: cell-based; conditions: Homo sapiens, ASPC1, 3 hours
Experimental: (§2) AsPC-1 (G12D, ATCC CRL-1682), A549 (G12S, ATCC CCL-185), HCT116 (G13D, ATCC CCL-247) cells were grown in DMEM medium supplemented with 10% fetal bovine serum and Penicillin/Streptomycin. NCI-H358 (G12C, ATCC CRL-5807), NCI-H460 (Q61H, ATCC HTB-117), NCI-H727 (G12V, ATCC CRL-5815), MKN1 (WTdep, JCRB JCRB0252), PSN-1 (G12R, ATCC CRM-CRL-3211) cells were grown in RPMI medium supplemented with 10% fetal bovine serum, 10 mM HEPES, 10 mM Sodium Pyruvate, and Penicillin/Streptomycin. Cells were plated in black well clear bottom tissue culture treated 96 well plates (Corning, 3904) at a density of 20,000 cells/well and allowed to attach for 12-14 hours. Diluted compounds were then added in a final concentration of 0.5% DMSO. After 3 hours, 50 μL of 4.0% formaldehyde was added and the plates incubated at room temperature for 20 minutes. The plates were then dumped and permeabilized with 150 μL of ice cold 100% methanol for 10 minutes. Non-specific antibody binding to the plates was blocked using 100 μL Odyssey blocking buffer (LI-COR Biosciences, 927-60010) for 1 hour at room temperature.
(§3) The amount of phospho-ERK was determined using an antibody specific for the phosphorylated form of ERK and compared to the amount of GAPDH. Primary antibodies used for the detection were added as follows: Phospho-ERK (Cell Signaling CS-9101) diluted 1:500 and GAPDH (Millipore MAB374) diluted 1:5000 in Odyssey blocking buffer+0.05% Tween 20. The plates were incubated overnight at 4 C. The plates were washed 3× with 150 uL PBS+0.1% Tween 20.
(§4) Secondary antibodies used to visualize primary antibodies were added as follows: Goat Anti-Rabbit-800 (LI-COR, 926-32211) and Goat Anti-Mouse-680 (LI-COR, 926-68070) diluted 1:800 both in Odyssey blocking buffer+0.05% Tween 20 and were incubated for 1 hour at room temperature. The plates were washed 3× with 150 uL PBS+[…]. Plates were imaged dry on a Li—COR Odyssey CLX plate reader.
(§5) The phospho-ERK (Thr202/Tyr204) signal was normalized to the GAPDH signal for each well and percent of DMSO control values were calculated. IC50 values were generated using a 4-parameter fit of the dose response curve.

[2] = tested on: NCI-H460 (Q61H) cells, phospho-ERK; assay: as above; assay type: cell-based; conditions: Homo sapiens, 3 hours
Experimental: as §2, §3, §4, §5

[3] = tested on: NCI-H727 (G12V) cells, phospho-ERK; assay: as above; assay type: cell-based; conditions: Homo sapiens, 3 hours
Experimental: as §2, §3, §4, §5

T2 sequence (P01116 1-169 isoform P01116-2 G12R): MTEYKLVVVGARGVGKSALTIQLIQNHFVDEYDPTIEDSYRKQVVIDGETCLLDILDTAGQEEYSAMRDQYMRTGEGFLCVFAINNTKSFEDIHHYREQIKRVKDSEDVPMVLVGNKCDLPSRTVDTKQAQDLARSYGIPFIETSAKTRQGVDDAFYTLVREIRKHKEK
T1 sequence (P01116 1-169 isoform P01116-2 G12D): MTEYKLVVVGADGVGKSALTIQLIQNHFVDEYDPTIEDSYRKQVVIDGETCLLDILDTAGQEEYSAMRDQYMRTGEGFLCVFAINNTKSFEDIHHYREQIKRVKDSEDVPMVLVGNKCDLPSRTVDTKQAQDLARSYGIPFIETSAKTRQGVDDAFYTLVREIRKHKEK

SMILES | IC50 (KRas^G12D) [nM] | IC50 (KRas^G12R) [nM] | IC50 (KRas^G12V) [nM] | IC50 (A549 cells, pERK) [nM] | IC50 (ASPC1 cells, pERK) [nM] | IC50 (H460 cells, pERK) [nM] | IC50 (H727 cells, pERK) [nM] | IC50 (HCT116 cells, pERK) [nM] | IC50 (MKN1 cells, pERK) [nM] | IC50 (PSN1 cells, pERK) [nM] | IC50 [1] [nM] | IC50 [2] [nM] | IC50 [3] [nM]
O=C1NC(=O)C2(CCCN(c3nc(OC[C@@]45CCCN4C[C@H](F)C5)nc4c3CCN(c3cc(O)cc5ccc(F)c(Br)c35)C4)C2)N1 (stereo partly drawn) [Example 217, 7-(7-(8-bromo-7-fluoro-3-hydroxynaphthalen-1-yl)-2-(((2R,7aS)-2-fluorohexahydro-1H-pyrrolizin-7a-yl)methoxy)-5,6,7,8-tetrahydropyrido[3,4-d]pyrimidin-4-yl)-1,3,7-triazaspiro[4.5]decane-2,4-dione] | ≤ 2 | ≤ 2 | ≤ 2 | 160 | 234 | 132 | 390 | 227 | 21 | 269 |  |  | 
CCc1c(F)ccc2cc(O)cc(N3CCc4c(nc(OC[C@@]56CCCN5C[C@H](F)C6)nc4N4CC5C(=O)NC(=O)C5C4)C3)c12 (stereo partly drawn) [Example 24, 5-(7-(8-ethyl-7-fluoro-3-hydroxynaphthalen-1-yl)-2-(((2R,7aS)-2-fluorohexahydro-1H-pyrrolizin-7a-yl)methoxy)-5,6,7,8-tetrahydropyrido[3,4-d]pyrimidin-4-yl)tetrahydropyrrolo[3,4-c]pyrrole-1,3(2H,3aH)-dione] | ≤ 2 | ≤ 2 | ≤ 2 | 17 | 10 | 59 | 35 | 148 | 6 | 2950 | 25 | 65 | 134
CCc1c(F)ccc2cc(O)cc(N3CCc4c(nc(OC[C@@]56CCCN5C[C@H](F)C6)nc4N4CCOCC(n5cccn5)C4)C3)c12 (stereo partly drawn) [Example 25, 4-(4-(6-(1H-pyrazol-1-yl)-1,4-oxazepan-4-yl)-2-(((2R,7aS)-2-fluorohexahydro-1H-pyrrolizin-7a-yl)methoxy)-5,6-dihydropyrido[3,4-d]pyrimidin-7(8H)-yl)-5-ethyl-6-fluoronaphthalen-2-ol] | 3 | 4 | 3 |  | 180 |  | 767 | 521 | 51 | 8320 | 448 | 171 | 540
O=C1NC(=O)C2(CCCN(c3nc(OC[C@@]45CCCN4C[C@H](F)C5)nc4c3CCN(c3cc(O)cc5ccc(F)c(Cl)c35)C4)C2)N1 (stereo partly drawn) [Example 69, 7-(7-(8-chloro-7-fluoro-3-hydroxynaphthalen-1-yl)-2-(((2R,7aS)-2-fluorohexahydro-1H-pyrrolizin-7a-yl)methoxy)-5,6,7,8-tetrahydropyrido[3,4-d]pyrimidin-4-yl)-1,3,7-triazaspiro[4.5]decane-2,4-dione] | ≤ 2 | ≤ 2 | 52 | 59 | 122 | 68 | 194 | 164 | 41 | 578 |  |  | 
CN(C)C(=O)c1cc2n(n1)CCCN(c1nc(OC[C@@]34CCCN3C[C@H](F)C4)nc3c1CCN(c1cc(O)cc4ccc(F)c(Cl)c14)C3)C2 [Example 229, 5-(7-(8-chloro-7-fluoro-3-hydroxynaphthalen-1-yl)-2-(((2R,7aS)-2-fluorohexahydro-1H-pyrrolizin-7a-yl)methoxy)-5,6,7,8-tetrahydropyrido[3,4-d]pyrimidin-4-yl)-N,N-dimethyl-5,6,7,8-tetrahydro-4H-pyrazolo[1,5-a][1,4]diazepine-2-carboxamide] | ≤ 2 | ≤ 2 | ≤ 2 | 705 | 220 | 1400 | 260 | 1980 | 317 | 2140 |  |  | 

The next lines start with results.

IC50 (KRas^G12D) [nM] | IC50 (KRas^G12R) [nM] | IC50 (KRas^G12V) [nM] | IC50 (A549 cells, pERK) [nM] | IC50 (ASPC1 cells, pERK) [nM] | IC50 (H460 cells, pERK) [nM] | IC50 (H727 cells, pERK) [nM] | IC50 (HCT116 cells, pERK) [nM] | IC50 (MKN1 cells, pERK) [nM] | IC50 (PSN1 cells, pERK) [nM] | SMILES | IC50 [1] [nM] | IC50 [2] [nM] | IC50 [3] [nM]
≤ 2 | 5 | ≤ 2 | 671 | 185 | 1240 | 344 | 1950 | 185 | ≥ 10000 | CCc1c(F)ccc2cc(O)cc(N3CCc4c(nc(OC[C@@H]5CCCN5C)nc4N4CCCn5nc(C(=O)N(C)C)cc5C4)C3)c12 [Example 198, 5-[7-(8-ethyl-7-fluoro-3-hydroxy-1-naphthyl)-2-[[(2S)-1-methylpyrrolidin-2-yl]methoxy]-6,8-dihydro-5H-pyrido[3,4-d]pyrimidin-4-yl]-N,N-dimethyl-4,6,7,8-tetrahydropyrazolo[1,5-a][1,4]diazepine-2-carboxamide] |  |  | 
≤ 2 | ≤ 2 | ≤ 2 | 98 | 125 | 331 | 114 | 709 | 34 | 2770 | O=C1NC(=O)C2CN(c3nc(OC[C@@]45CCCN4C[C@H](F)C5)nc4c3CCN(c3cc(O)cc5ccc(F)c(Cl)c35)C4)CC12 (stereo partly drawn) [Example 232, 5-(7-(8-chloro-7-fluoro-3-hydroxynaphthalen-1-yl)-2-(((2R,7aS)-2-fluorohexahydro-1H-pyrrolizin-7a-yl)methoxy)-5,6,7,8-tetrahydropyrido[3,4-d]pyrimidin-4-yl)tetrahydropyrrolo[3,4-c]pyrrole-1,3(2H,3aH)-dione] |  |  | 
≤ 2 | 3 | 52 | 524 | 132 | 1100 | 283 | 1700 | 181 | ≥ 10000 | CCc1c(F)ccc2cc(O)cc(N3CCc4c(nc(OCC5(CN(C)C)CC5)nc4N4CCCn5nc(C(=O)N(C)C)cc5C4)C3)c12 [Example 203, 5-(2-((1-((dimethylamino)methyl)cyclopropyl)methoxy)-7-(8-ethyl-7-fluoro-3-hydroxynaphthalen-1-yl)-5,6,7,8-tetrahydropyrido[3,4-d]pyrimidin-4-yl)-N,N-dimethyl-5,6,7,8-tetrahydro-4H-pyrazolo[1,5-a][1,4]diazepine-2-carboxamide] |  |  | 
≤ 2 | ≤ 2 | ≤ 2 | 146 | 108 | 253 | 197 | 405 | 24 | 696 | O=C1NCC2(CCCN(c3nc(OC[C@@]45CCCN4C[C@H](F)C5)nc4c3CCN(c3cc(O)cc5ccc(F)c(Cl)c35)C4)C2)N1 (stereo partly drawn) [Example 228, 7-(7-(8-chloro-7-fluoro-3-hydroxynaphthalen-1-yl)-2-(((2R,7aS)-2-fluorohexahydro-1H-pyrrolizin-7a-yl)methoxy)-5,6,7,8-tetrahydropyrido[3,4-d]pyrimidin-4-yl)-1,3,7-triazaspiro[4.5]decan-2-one] |  |  | 
